Here are results for 17 compounds from patent publication US12187742B2 (XRAD Therapeutics, Inc., priority 2018, dated 2025).

Structures are written as SMILES. Counter-ions that a name gives are not always drawn. Where only a bound is given, the exact number is not on record here.

In the test the target is ATM (Homo sapiens (Human), UniProt Q13315). Put plainly: ATM in Cell Western Assay (pKAP1 in etoposide-treated MCF-7 cells). It counts as cell-based. To be noted: pKAP1 in etoposide-treated MCF-7 cells. An outline of the steps: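 After paraformaldehyde fixation and Triton X-100 permeabilization, immunostained plates were read by infrared scanning (ODYSSEY CLx). Compound was given as 10 doses, 3-fold dilutions from a 1 μM final top concentration.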
Sequence of ATM (Q13315 whole entry): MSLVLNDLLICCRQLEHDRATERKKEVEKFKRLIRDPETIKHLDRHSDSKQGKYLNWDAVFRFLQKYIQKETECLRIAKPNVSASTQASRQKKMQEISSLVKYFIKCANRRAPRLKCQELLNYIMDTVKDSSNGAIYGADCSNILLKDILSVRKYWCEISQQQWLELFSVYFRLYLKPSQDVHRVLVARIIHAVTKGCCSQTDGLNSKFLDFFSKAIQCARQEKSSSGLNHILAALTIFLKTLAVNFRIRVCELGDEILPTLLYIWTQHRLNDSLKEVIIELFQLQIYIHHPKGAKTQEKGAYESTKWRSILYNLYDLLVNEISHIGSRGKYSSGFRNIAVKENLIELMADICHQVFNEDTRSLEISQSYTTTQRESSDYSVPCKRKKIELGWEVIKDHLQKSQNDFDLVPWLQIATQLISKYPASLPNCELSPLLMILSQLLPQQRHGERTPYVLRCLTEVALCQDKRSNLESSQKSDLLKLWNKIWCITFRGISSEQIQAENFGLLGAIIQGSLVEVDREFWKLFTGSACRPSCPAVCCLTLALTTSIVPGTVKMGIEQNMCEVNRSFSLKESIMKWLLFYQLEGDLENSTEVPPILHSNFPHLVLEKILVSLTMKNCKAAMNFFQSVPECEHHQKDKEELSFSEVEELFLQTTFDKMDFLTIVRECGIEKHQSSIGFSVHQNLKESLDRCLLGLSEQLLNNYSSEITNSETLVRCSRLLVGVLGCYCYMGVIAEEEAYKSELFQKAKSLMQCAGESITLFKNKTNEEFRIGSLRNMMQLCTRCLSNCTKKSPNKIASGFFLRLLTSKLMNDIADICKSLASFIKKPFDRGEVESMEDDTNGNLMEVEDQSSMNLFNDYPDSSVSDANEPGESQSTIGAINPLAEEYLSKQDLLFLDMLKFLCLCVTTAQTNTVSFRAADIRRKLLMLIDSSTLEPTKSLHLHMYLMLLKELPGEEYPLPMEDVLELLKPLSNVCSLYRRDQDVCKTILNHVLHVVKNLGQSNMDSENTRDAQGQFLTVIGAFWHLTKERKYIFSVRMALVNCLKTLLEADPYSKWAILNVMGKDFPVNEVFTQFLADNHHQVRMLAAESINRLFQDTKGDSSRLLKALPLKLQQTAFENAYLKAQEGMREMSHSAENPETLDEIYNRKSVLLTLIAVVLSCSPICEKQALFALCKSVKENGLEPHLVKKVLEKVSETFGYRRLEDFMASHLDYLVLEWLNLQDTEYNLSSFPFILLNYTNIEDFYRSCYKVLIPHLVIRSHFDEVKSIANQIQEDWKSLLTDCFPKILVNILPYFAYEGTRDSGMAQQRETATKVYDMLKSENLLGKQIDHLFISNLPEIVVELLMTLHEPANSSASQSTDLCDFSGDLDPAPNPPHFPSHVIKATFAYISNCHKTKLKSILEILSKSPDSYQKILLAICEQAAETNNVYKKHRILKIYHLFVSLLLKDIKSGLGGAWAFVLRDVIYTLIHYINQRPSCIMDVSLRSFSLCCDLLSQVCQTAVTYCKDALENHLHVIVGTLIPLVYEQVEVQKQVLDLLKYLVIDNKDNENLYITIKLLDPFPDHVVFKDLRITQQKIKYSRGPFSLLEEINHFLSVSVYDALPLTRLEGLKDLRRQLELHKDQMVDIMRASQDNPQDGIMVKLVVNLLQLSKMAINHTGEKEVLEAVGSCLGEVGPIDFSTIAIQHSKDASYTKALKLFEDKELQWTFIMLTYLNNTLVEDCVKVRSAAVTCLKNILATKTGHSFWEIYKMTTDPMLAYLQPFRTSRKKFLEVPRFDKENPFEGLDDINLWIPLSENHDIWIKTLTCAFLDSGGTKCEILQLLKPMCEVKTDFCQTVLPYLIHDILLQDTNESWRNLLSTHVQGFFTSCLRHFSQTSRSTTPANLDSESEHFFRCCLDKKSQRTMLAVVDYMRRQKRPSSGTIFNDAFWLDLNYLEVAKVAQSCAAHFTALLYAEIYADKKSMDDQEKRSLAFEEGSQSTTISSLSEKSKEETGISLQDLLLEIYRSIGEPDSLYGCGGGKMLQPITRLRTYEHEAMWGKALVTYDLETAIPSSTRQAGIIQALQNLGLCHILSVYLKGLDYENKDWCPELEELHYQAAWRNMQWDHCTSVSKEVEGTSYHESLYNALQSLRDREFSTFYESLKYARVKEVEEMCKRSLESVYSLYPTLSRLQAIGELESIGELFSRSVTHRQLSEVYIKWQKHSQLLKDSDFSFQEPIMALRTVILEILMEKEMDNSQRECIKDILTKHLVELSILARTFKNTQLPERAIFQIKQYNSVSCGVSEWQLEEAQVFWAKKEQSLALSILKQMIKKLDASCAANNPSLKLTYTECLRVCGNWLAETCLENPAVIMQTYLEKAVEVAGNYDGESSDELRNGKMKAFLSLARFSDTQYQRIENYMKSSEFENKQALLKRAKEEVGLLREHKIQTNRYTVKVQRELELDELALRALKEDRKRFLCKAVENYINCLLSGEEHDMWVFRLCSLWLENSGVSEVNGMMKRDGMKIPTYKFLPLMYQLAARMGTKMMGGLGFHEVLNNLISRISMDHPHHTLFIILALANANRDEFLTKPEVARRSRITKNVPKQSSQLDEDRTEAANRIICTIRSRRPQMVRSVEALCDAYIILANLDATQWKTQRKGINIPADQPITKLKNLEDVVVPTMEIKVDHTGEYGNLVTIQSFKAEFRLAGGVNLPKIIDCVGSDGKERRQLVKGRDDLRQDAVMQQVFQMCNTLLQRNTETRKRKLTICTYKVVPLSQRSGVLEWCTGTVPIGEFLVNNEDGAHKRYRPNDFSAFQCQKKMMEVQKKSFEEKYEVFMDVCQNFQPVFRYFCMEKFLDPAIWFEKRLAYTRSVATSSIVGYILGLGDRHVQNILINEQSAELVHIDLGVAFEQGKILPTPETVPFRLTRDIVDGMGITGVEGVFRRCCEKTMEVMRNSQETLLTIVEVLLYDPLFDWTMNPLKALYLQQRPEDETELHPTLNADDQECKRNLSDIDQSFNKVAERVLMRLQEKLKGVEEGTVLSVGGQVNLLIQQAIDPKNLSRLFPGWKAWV
One may read the IC50 as the point on the concentration scale where inhibition reaches its midpoint. A low value points to inhibition by little substance. Take `CC(C)NCCOc1ncc(-c2cc3c4c(cnc3cc2F)N(C)C(=O)C42CN(c3cccnc3)C2)cc1NS(C)(=O)=O` [Example 548, N-(5-(7′-Fluoro-3′-methyl-2′-oxo-1-(pyridin-3-yl)-2′,3′-dihydrospiro [azetidine-3,1′-pyrrolo[2,3-c]quinolin]-8′-yl)-2-(2-(isopropylamino)ethoxy)pyridin-3-yl)methanesulfonamide hydrochloride]: the IC50 was in the range of 1 to 100 nM.
Under `CC(C)NCCOc1ncc(-c2cc3c4c(cnc3cc2F)N(C)C(=O)C42CN(c3cncnc3)C2)cc1NS(C)(=O)=O` [Example 549, N-(5-(7′-Fluoro-3′-methyl-2′-oxo-1-(pyrimidin-5-yl)-2′,3′-dihydrospiro[azetidine-3,1′-pyrrolo[2,3-c]quinolin]-8′-yl)-2-(2-(isopropylamino)ethoxy)pyridin-3-yl)methanesulfonamide] stands above 100 nM; under `CC(C)NCCOc1ncc(-c2cc3c4c(cnc3cc2F)N(C)C(=O)C42CN(c3nn[nH]n3)C2)cc1NS(C)(=O)=O` [Example 550, N-(5-(7′-Fluoro-3′-methyl-2′-oxo-1-(2H-tetrazol-5-yl)-2′,3′-dihydrospiro [azetidine-3,1′-pyrrolo[2,3-c]quinolin]-8′-yl)-2-(2-(isopropylamino)ethoxy)pyridin-3-yl)methanesulfonamide], above 100 nM; under `CC(C)NCCOc1ncc(-c2cc3c4c(cnc3cc2F)N(C)C(=O)C42CN(c3ncccn3)C2)cc1NS(C)(=O)=O` [Example 551, N-(5-(7′-Fluoro-3′-methyl-2′-oxo-1-(pyrimidin-2-yl)-2′,3′-dihydrospiro[azetidine-3,1′-pyrrolo[2,3-c]quinolin]-8′-y))-2-(2-(isopropylamino)ethoxy)pyridin-3-yl)methanesulfonamide hydrochloride], above 100 nM.
`CC(C)NCCOc1ncc(-c2cc3c4c(cnc3cc2F)N(C)C(=O)C42CN(c3nnn(C)n3)C2)cc1NS(C)(=O)=O` [Example 552, N-(5-(7′-Fluoro-3′-methyl-1-(2-methyl-2H-tetrazol-5-yl)-2′-oxo-2′,3′-dihydrospiro[azetidine-3,1′-pyrrolo[2,3-c]quinolin]-8′-yl)-2-(2-(isopropylamino)ethoxy)pyridin-3-yl)methanesulfonamide] registered an IC50 above 100 nM.
The compound `CC(C)NCCOc1ncc(-c2cc3c4c(cnc3cc2F)N(C)C(=O)C42CN(c3nnnn3C)C2)cc1NS(C)(=O)=O` [Example 553, N-(5-(7′-Fluoro-3′-methyl-1-(1-methyl-1H-tetrazol-5-yl)-2′-oxo-2′,3′-dihydrospiro[azetidine-3,1′-pyrrolo[2,3-c]quinolin]-8′-yl)-2-(2-(isopropylamino)ethoxy)pyridin-3-yl)methanesulfonamide] had an IC50 above 100 nM.
As for `CC(C)NCCOc1ncc(-c2cc3c4c(cnc3cc2F)N(C)C(=O)C42COC2)cc1NS(C)(=O)=O` [Example 555, N-(5-(7′-Fluoro-3′-methyl-2′-oxo-2′,3′-dihydrospiro[oxetane-3,1′-pyrrolo[2,3-c]quinolin]-8′-yl)-2-(2-(isopropylamino)ethoxy)pyridin-3-yl)methanesulfonamide hydrochloride], the half-inhibitory concentration (IC50) lay within 1 to 100 nM.
Turning to `CC(C)NCCOc1ncc(-c2ccc3ncc4c(c3c2F)C2(CCC2)C(=O)N4C)cc1NS(C)(=O)=O` [Example 556, N-(5-(9′-Fluoro-3′-methyl-2′-oxo-2′,3′-dihydrospiro[cyclobutane-1,1′-pyrrolo[2,3-c]quinolin]-8′-yl)-2-(2-(isopropylamino)ethoxy)pyridin-3-yl)methanesulfonamide hydrochloride], the IC50 fell in the range of 1 to 100 nM.
Take `CN(C)CCCOc1ncc(-c2cc(F)c3ncc4c(c3c2)C2(CCC2)C(=O)N4C)cc1NS(=O)(=O)N(C)C` [Example 557, 8′-{6-[3-(Dimethylamino)propoxy]-5-[(dimethylsulfainoyl)amino]pyridin-3-yl}-6′-fluoro-3′-methyl-2′,3′-dihydrospiro [cyclobutane-1,1′-pyrrolo[2,3-c]quinoline]-2′-one]: the IC50 is 1 to 100 nM.
Compound `CC(C)NCCOc1ncc(-c2cc3c4c(nnc3cc2F)N(C)C(=O)C42CCC2)cc1NS(C)(=O)=O` [Example 558, N-(5-(7′-Fluoro-3′-methyl-2′-oxo-2′,3′-dihydrospiro[cyclobutane-1,1′-pyrrolo [2,3-c]cinnolin]-8′-yl)-2-(2-(isopropylamino)ethoxy)pyridin-3-yl)methanesulfonamide] returned an IC50 above 100 nM.
`COC(=O)c1cc(-c2ccc3ncc4c(c3c2)C2(CCC2)C(=O)N4C)cc(NS(C)(=O)=O)c1OCCCN(C)C` [Example 559, Methyl 2-(3-(dimethylamino)propoxy)-5-(3′-methyl-2′-oxo-2′,3′-dihydrospiro[cyclobutane-1,1′-pyrrolo[2,3-c]quinolin]-8′-yl)-3-(methylsulfonamido)benzoate]: the IC50 is above 100 nM.
For `CC(C)NCCOc1ncc(-c2cc3c4c(cnc3cc2F)N(C)C(=O)C42CC(F)C2)cc1NS(C)(=O)=O` (stereo not drawn) [Example 560, cis-N-(5-(3,7′-Difluoro-3′-methyl-2′-oxo-2′,3′-dihydrospiro[cyclobutane-1,1′-pyrrolo[2,3-c]quinolin]-8′-yl)-2-(2-(isopropylamino)ethoxy)pyridin-3-yl)methanesulfonamide], the IC50 lay within 1 to 100 nM.
Consider `CC(C)NCCOc1ncc(-c2ccc3ncc4c(c3n2)C2(CCC2)C(=O)N4C)cc1NS(C)(=O)=O` [Example 561, N-(5-[7-Methyl-8-oxo-7,8-dihydrospiro[cyclobutane-1,9-pyrrolo[2,3-c]1,5-naphthyridin]-2-yl]-2-[2-[(propan-2-yl)amino]ethoxy]pyridin-3-yl) methanesulfonamide], for which the IC50 lay in the range of 1 to 100 nM.
In turn, `CC(C)NCCOc1ncc(-c2cc3c4c(cnc3cn2)N(C)C(=O)C42CCC2)cc1NS(C)(=O)=O` [Example 562, N-(2-(2-(Isopropylamino)ethoxy)-5-(3′-methyl-2′-oxo-2′,3′-dihydrospiro [cyclobutane-1,1′-pyrrolo[2,3-c] [1,7]naphthyridin]-8′-yl)pyridin-3-yl)methanesulfonamide] registered an IC50 above 100 nM.
Under `CN(C)CCCOc1c(C#N)cc(-c2ccc3ncc4c(c3c2)C2(CCC2)C(=O)N4C)cc1NS(C)(=O)=O` [Example 563, N-(3-Cyano-2-(3-(dimethylamino)propoxy)-5-(3′-methyl-2′-oxo-2′,3′-dihydrospiro[cyclobutane-1,1′-pyrrolo[2,3-c]quinolin]-8′-yl)phenyl)methanesulfonamide] stands 1 to 100 nM; under `CN(C)CCCOc1c(NS(C)(=O)=O)cc(-c2ccc3ncc4c(c3c2)C2(CCC2)C(=O)N4C)cc1C(=O)N(C)C` [Example 564, 2-(3-(Dimethylamino)propoxy)-N,N-dimethyl-5-(3′-methyl-2′-oxo-2′,3′-dihydrospiro[cyclobutane-1,1′-pyrrolo[2,3-c]quinolin]-8′-yl)-3-(methylsulfonamido)benzamide], above 100 nM; under `CNC(=O)c1cc(-c2ccc3ncc4c(c3c2)C2(CCC2)C(=O)N4C)cc(NS(C)(=O)=O)c1OCCCN(C)C` [Example 565, 2-(3-(Dimethylamino)propoxy)-N-methyl-5-(3′-methyl-2′-oxo-2′,3′-dihydrospiro[cyclobutane-1,1′-pyrrolo[2,3-c]quinolin]-8′-yl)-3-(methylsulfonamido)benzamide], above 100 nM.
